Results from ChEMBL document CHEMBL4033694, “Synthesis, antimycobacterial activity and docking study of 2-aroyl-[1]benzopyrano[4,3-c]pyrazol-4(1H)-one derivatives and related hydrazide-hydrazones” (Bioorg Med Chem Lett, 2017).
In brackets after ≈: the same amount, converted by molar mass. Where a name gives a salt, the structure may show the parent alone.

What was measured:
HEK-293T = test: Cytotoxicity against HEK293T cells after 72 hrs by MTT assay; assay type: cell-based; settings: Homo sapiens
[1] = Solubility of the compound in MeOH; assay type: physicochemical
[2] = Solubility of the compound in CHCl3; assay type: physicochemical
[3] = tested on: Mycobacterium tuberculosis; test: Antimicrobial activity against Mycobacterium tuberculosis H37Rv after 7 days by resazurin microtiter assay; assay type: functional; settings: 168 h
[4] = Selectivity index, ratio of IC50 for HEK293T cells to MIC for Mycobacterium tuberculosis H37Rv; assay type: toxicity; settings: human, read-out: Selectivity Index
[5] = Solubility of the compound in H2O; assay type: physicochemical
[6] = Stability of the compound in DMSO-d6 solvent/middlebrook 7H9 broth media after 16 hrs by 1H NMR spectra analysis; assay type: physicochemical
[7] = Solubility of the compound in EtOH; assay type: physicochemical
[8] = Thermal stability of the compound in DMSO-d6 solvent at 37 degC by 1H NMR spectra analysis; assay type: physicochemical
[9] = Stability of the compound in DMSO-d6 solvent measured every 8 hrs for 12 days by 1H NMR spectra analysis; assay type: physicochemical; settings: 288 h

## CN(C)c1ccc(C(=O)n2cc3c(=O)oc4ccccc4c3n2)cc1
HEK-293T
  IC50: > 200 µM
[1]
  solubility: Insoluble
[2]
  solubility: Insoluble
[3]
  MIC: 0.59 µM (≈ 0.197 µg/mL)
[4]
  selectivity ratio: > 408
[5]
  solubility: Insoluble
[6]
  Stability: Stable
[7]
  solubility: Insoluble
[8]
  Stability: Stable
[9]
  Stability: Stable

## O=C(c1ccc(O)cc1)n1cc2c(=O)oc3ccccc3c2n1
HEK-293T
  IC50: > 200 µM
[3]
  MIC: 0.32 µM (≈ 0.098 µg/mL)
[4]
  selectivity ratio: > 625

## COc1ccc(C(=O)N/N=C/c2c(Cl)c3ccccc3oc2=O)cc1
HEK-293T
  IC50: 113 µM
[1]
  solubility: Insoluble
[2]
  solubility: Insoluble
[3]
  MIC: 0.28 µM (≈ 0.0999 µg/mL)
[4]
  selectivity ratio: 403
[5]
  solubility: Insoluble
[6]
  Stability: Stable
[7]
  solubility: Insoluble
[8]
  Stability: Stable
[9]
  Stability: Stable

## O=C(N/N=C/c1c(Cl)c2ccccc2oc1=O)c1ccc(O)cc1O
[3]
  MIC: 0.56 µM (≈ 0.201 µg/mL)

## O=C(N/N=C/c1c(Cl)c2ccccc2oc1=O)c1ccc(Cl)cc1
HEK-293T
  IC50: 21 µM
[1]
  solubility: Insoluble
[2]
  solubility: Insoluble
[3]
  MIC: 0.55 µM (≈ 0.199 µg/mL)
[4]
  selectivity ratio: 33
[5]
  solubility: Insoluble
[6]
  Stability: Stable
[7]
  solubility: Insoluble
[8]
  Stability: Stable
[9]
  Stability: Stable

## COc1ccc(C(=O)n2cc3c(=O)oc4ccccc4c3n2)cc1
HEK-293T
  IC50: > 200 µM
[1]
  solubility: Insoluble
[2]
  solubility: Insoluble
[3]
  MIC: 0.62 µM (≈ 0.199 µg/mL)
[4]
  selectivity ratio: > 645
[5]
  solubility: Insoluble
[6]
  Stability: Stable
[7]
  solubility: Insoluble
[8]
  Stability: Stable
[9]
  Stability: Stable

## O=C(c1ccc(O)cc1O)n1cc2c(=O)oc3ccccc3c2n1
HEK-293T
  IC50: > 200 µM
[1]
  solubility: Insoluble
[2]
  solubility: Insoluble
[3]
  MIC: 0.62 µM (≈ 0.2 µg/mL)
[4]
  selectivity ratio: > 308
[5]
  solubility: Insoluble
[6]
  Stability: Stable
[7]
  solubility: Insoluble
[8]
  Stability: Stable
[9]
  Stability: Stable

## CN(C)c1ccc(C(=O)N/N=C/c2c(Cl)c3ccccc3oc2=O)cc1
HEK-293T
  IC50: 18.7 µM
[1]
  solubility: Insoluble
[2]
  solubility: Insoluble
[3]
  MIC: 0.54 µM (≈ 0.2 µg/mL)
[4]
  selectivity ratio: 20
[5]
  solubility: Insoluble
[6]
  Stability: Stable
[7]
  solubility: Insoluble
[8]
  Stability: Stable
[9]
  Stability: Stable

## O=C(c1ccco1)n1cc2c(=O)oc3ccccc3c2n1
HEK-293T
  IC50: > 200 µM
[3]
  MIC: 0.72 µM (≈ 0.202 µg/mL)
[4]
  selectivity ratio: > 282

## Cc1occc1C(=O)n1cc2c(=O)oc3ccccc3c2n1
HEK-293T
  IC50: > 200 µM
[3]
  MIC: 1.69 µM (≈ 0.497 µg/mL)
[4]
  selectivity ratio: > 119

## O=C(N/N=C/c1c(Cl)c2ccccc2oc1=O)c1ccco1
HEK-293T
  IC50: 63.6 µM
[1]
  solubility: Insoluble
[2]
  solubility: Insoluble
[3]
  MIC: 0.63 µM (≈ 0.2 µg/mL)
[4]
  selectivity ratio: 236
[5]
  solubility: Insoluble
[6]
  Stability: Stable
[7]
  solubility: Insoluble
[8]
  Stability: Stable
[9]
  Stability: Stable

## CC[C@@H](CO)NCCN[C@@H](CC)CO [ETHAMBUTOL HYDROCHLORIDE]
[3]
  MIC: 1.46 µM

## NNC(=O)c1ccncc1 [ISONIAZID]
[3]
  MIC: 0.79 µM (≈ 0.108 µg/mL)
